Experimental data taken from patent EP4461368A1, “5H-PYRROLO[3,2-B:5,4-C']DIPYRIDINE DERIVATIVES AND 6,7,8,9-TETRAHYDRO-5H-PYRROLO[3,2-B:5,4-C']DIPYRIDINE DERIVATIVES USEFUL IN THE TREATMENT OF CANCER” (Institut Regional du Cancer de Montpellier, priority 2023, dated 2024).

What was measured:
Type in all cases: cell-based
Chromatin-MDM2 = biological target: T1, Chromatin-MDM2 (Homo sapiens, UniProt Q00987); assay: MDM2 degradation by western blot and immunofluorescence, chromatin-bound MDM2; settings: degradation efficacy, cells collected 18 hours after compound addition
T1 construct: endogenous in cells; host or cells: IB111 liposarcoma cells
T1 sequence (Q00987 whole entry): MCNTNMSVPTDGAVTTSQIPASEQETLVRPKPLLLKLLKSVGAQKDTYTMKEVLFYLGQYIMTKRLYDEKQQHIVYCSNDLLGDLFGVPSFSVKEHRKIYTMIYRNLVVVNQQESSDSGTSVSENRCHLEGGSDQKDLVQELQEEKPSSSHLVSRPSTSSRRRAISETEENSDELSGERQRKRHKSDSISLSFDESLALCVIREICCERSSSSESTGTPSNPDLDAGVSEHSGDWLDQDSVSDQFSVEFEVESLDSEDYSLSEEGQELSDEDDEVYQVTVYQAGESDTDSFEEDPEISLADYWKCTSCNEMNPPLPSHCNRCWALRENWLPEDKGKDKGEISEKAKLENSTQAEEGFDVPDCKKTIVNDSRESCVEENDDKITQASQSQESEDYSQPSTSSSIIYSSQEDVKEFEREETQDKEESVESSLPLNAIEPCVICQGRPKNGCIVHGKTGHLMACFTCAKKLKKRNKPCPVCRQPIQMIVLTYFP
Experimental: (§1) MDM2 degradation is measured by western blot and immunofluorescence.
(§2) Cells were seeded in 6-well plates (Sarsted) in complete DMEM medium as to obtain triplicates for each condition (500 000 cells/well). After 24 hours, the compounds were added to the cells. Then, 18 hours later cells were collected for western blotting or immunofluorescence. • Western Blot: Cells were collected in Laemmli buffer, boiled and analyzed in 8% acrylamide gel. • Immunofluorescence: Cancer cells were fixed with paraformaldehyde (PFA) 4% for 15 minutes then permeabilized for 15 minutes at RT with phosphate-buffered saline (PBS) Triton 0.1% and blocked with Phosphate buffered saline-[…] (PBS-BSA) 0.3% for 1 hour at RT before overnight incubation at 4 °C with an anti- mouse monoclonal antibody against MDM2 (MABE340 Millipore). Immunodetection was performed using an Alexa 488-conjugated anti-mouse IgG antibody (Thermo Fisher) for 45 minutes at RT. Cover glasses were mounted with Mowiol (Biovalley) and DAPI (Sigma) before analysis on a Zeiss apotome.

Cytoplasmic- MDM2 = biological target: T2, Cytoplasmic- MDM2 (Homo sapiens, UniProt Q00987); assay: MDM2 degradation by western blot and immunofluorescence, cytoplasmic MDM2; settings: degradation efficacy, cells collected 18 hours after compound addition
T2 construct: endogenous in cells; host or cells: hPac / ZR75.1 cancer cells
T2 sequence (Q00987 whole entry): as above
Experimental: as §1, §2

[1] = tested on: cancer cells exhibiting recruitment of MDM2 to chromatin (IB111); assay: Cell survival, Sulforhodamine B assay (SRB assay), cells with recruitment of MDM2 to chromatin
Experimental: (§3) Cell survival after MDM2 inhibitor treatment (IC50) was determined using the Sulforhodamine B assay (SRB assay).
(§4) Cells were seeded in 96-well plates (Sarsted) in complete DMEM medium as to obtain triplicates for each condition (5 000 cells/well). After 24 hours, serial dilutions of the indicated compounds were added to the cells. […] Fixed SRB was finally dissolved in 10 mM Tris-HCl solution and 560nm absorbance was read using a PHERAstar FSX plate reader.

[2] = tested on: cancer cells not exhibiting recruitment of MDM2 to chromatin (Hpac/ZR75.1); assay: Cell survival, Sulforhodamine B assay (SRB assay), cells without recruitment of MDM2 to chromatin; settings: Hpac/ZR75.1 cells, treated for 72 hours with increasing concentrations
Experimental: as §3, §4

[3] = treated with increasing concentrations

Compound | Chromatin-MDM2 degradation (Chromatin-MDM2) | Cytoplasmic- MDM2 degradation (Cytoplasmic- MDM2) | IC50 ([1]; treated for 72 hours with increasing concentrations) [nM] | efficiency on cancer cells not exhibiting recruitment of MDM2 to chromatin [2] | IC50 [1, 3] [nM]
2-methoxy-6-(5,6,7,8-tetrahydronaphthalen-1-yl)-5H-pyrrolo[3,2-b:5,4-c'] dipyridine [Compound 14] | +++ (+++ ≥ 80%) | - (<25%: no degradation: indicated "-" in the table) | < 500 | not efficient | –
COc1ccc2[nH]c3c(-c4cccc5ccccc45)nccc3c2n1 [Compound 1, 2-methoxy-6-(naphthalen-1-yl)-5H-pyrrolo[3,2-b:5,4-c']dipyridine] | +++ (+++ ≥ 80%) | - (<25%: no degradation: indicated "-" in the table) | – | not efficient | < 500
COc1ccc2[nH]c3c(-c4ccnc5nccnc45)nccc3c2n1 [Compound 3, 2-methoxy-6-(pyrido[2,3-b]pyrazin-8-yl)-5H-pyrrolo[3,2-b:5,4-c'] dipyridine] | + (25%≤+<40%) | - (<25%: no degradation: indicated "-" in the table) | – | – | –
COc1ccc2[nH]c3c(-c4cccc5ccccc45)nccc3c2n1.Cl [Compound 4, 2-methoxy-6-(naphthalen-1-yl)-5H-pyrrolo[3,2-b:5,4-c']dipyridine hydrochloride] | +++ (+++ ≥ 80%) | - (<25%: no degradation: indicated "-" in the table) | – | not efficient | –
COc1ccc2[nH]c3c(-c4ccnc5ccccc45)nccc3c2n1 [Compound 6, 2-methoxy-6-(quinolin-4-yl)-5H-pyrrolo[3,2-b:5,4-c']dipyridine] | + (25%≤+<40%) | - (<25%: no degradation: indicated "-" in the table) | – | – | –
COc1ccc2[nH]c3c(-c4cccc5ccccc45)nccc3c2n1.O=C(O)/C=C/C(=O)O [Compound 10, 2-methoxy-6-(naphthalen-1-yl)-5H-pyrrolo[3,2-b:5,4-c']dipyridine fumarate] | +++ (+++ ≥ 80%) | - (<25%: no degradation: indicated "-" in the table) | – | not efficient | –

Further lines, with some results ahead:

Chromatin-MDM2 degradation (Chromatin-MDM2) | Compound | Cytoplasmic- MDM2 degradation (Cytoplasmic- MDM2) | IC50 ([1]; treated for 72 hours with increasing concentrations) [nM] | efficiency on cancer cells not exhibiting recruitment of MDM2 to chromatin [2] | IC50 [1, 3] [nM]
+++ (+++ ≥ 80%) | COc1ccc2[nH]c3c(-c4cccc5ccccc45)nccc3c2n1.O=C(O)CC(O)(CC(=O)O)C(=O)O [Compound 11, 2-methoxy-6-(naphthalen-1-yl)-5H-pyrrolo[3,2-b:5,4-c']dipyridine 2-hydroxypropane-1,2,3-tricarboxylate] | - (<25%: no degradation: indicated "-" in the table) | – | not efficient | –
++ (40%≤++<80%) | COc1ccc2[nH]c3c(-c4cccc5ccccc45)nccc3c2n1.O=P(O)(O)O [Compound 12, 2-methoxy-6-(naphthalen-1-yl)-5H-pyrrolo[3,2-b:5,4-c']dipyridine phosphate] | - (<25%: no degradation: indicated "-" in the table) | – | not efficient | –
++ (40%≤++<80%) | COc1ccc2[nH]c3c(-c4cccc5ccccc45)nccc3c2n1.O=S(=O)(O)O [Compound 13, 2-methoxy-6-(naphthalen-1-yl)-5H-pyrrolo[3,2-b:5,4-c']dipyridine sulfate] | - (<25%: no degradation: indicated "-" in the table) | – | not efficient | –
++ (40%≤++<80%) | COc1ccc2[nH]c3c(-c4ccc(F)c5ccccc45)nccc3c2n1 [Compound 15, 6-(4-fluoronaphthalen-1-yl)-2-methoxy-5H-pyrrolo [3,2-b: 5,4-c'] dipyridine] | - (<25%: no degradation: indicated "-" in the table) | – | not efficient | < 500
+++ (+++ ≥ 80%) | COc1ccc2[nH]c3c(-c4cccc5c4CCCC5)nccc3c2n1.Cl [Compound 16, 2-methoxy-6-(5,6,7,8-tetrahydronaphthalen-1-yl)-5H-pyrrolo[3,2-b:5,4-c']dipyridine hydrochloride] | - (<25%: no degradation: indicated "-" in the table) | – | not efficient | < 500
+ (25%≤+<40%) | COc1ccc2[nH]c3c(-c4ccc(F)c5ccccc45)nccc3c2n1.Cl [Compound 17, 6-(4-fluoronaphthalen-1-yl)-2-methoxy-5H-pyrrolo [3,2-b: 5,4-c']dipyridine hydrochloride] | - (<25%: no degradation: indicated "-" in the table) | – | – | –
